For orientation: IC50 means the midpoint of a concentration-inhibition curve.

Holding throughout (assay type): cell-based, human
Assay [1] concerns diffuse large B-cell lymphoma SU-DHL-10 cell. The experiment in a line: MTT anti-proliferative assay, SU-DHL-10. The settings on record: MTT, 48 h; read-out: IC50 SU-DHL-10. As to the method: (§1) The anti-proliferation activities of the synthesized analogs were assessed by an in vitro MTT assay conducted on thirteen human cell lines. Their cytotoxic activities were evaluated by measuring the inhibition of net cell growth. […]
(§2) 1.6. Cell lines and cell culture
(§3) MTT was purchased from Sigma-Aldrich Co. (St. Louis, MO, USA). The PI and Annexin V-FITC apoptosis detection kit were purchased from Invitrogen (Eugene, OR, USA). All human cell lines were used in this study. […]
(§4) cell, MCF-7 breast cancer cell, MCF-10A normal breast cell, Raji B lymphoblastoid cell and diffuse large B-cell lymphoma SU-DHL-10 cell were initially purchased from American Type Culture Collection (ATCC, Manassas, Virginia). media, DMEM, and FBS were provided from Gibco Company.
(§5) 1.7. Cell growth inhibition assay (MTT assay)
(§6) The experiment was carried out according to the method of reference. Briefly, cells were plated in 96-well plates at a den- […]
(§7) the anti-proliferative activities were determined by MTT assay. […]
(§8) (Becton-Dickinson, Franklin Lakes, NJ). […]
(Tetrazolium assays rely on reduction of a dye to a coloured formazan, in cell work by metabolically active cells.)

For assay [2], the system named is HeLa cervical cancer cell. In words: MTT anti-proliferative assay, HeLa. Particulars: MTT, 48 h. The method, then:
as §1, §2, §3, §4, §5, §6, §7, §8

In assay [3] the test system is Raji B lymphoblastoid cell. In words: MTT anti-proliferative assay, Raji. The settings on record: MTT, 48 h; read-out: IC50 Raji. The method, then:
as §1, §2, §3, §4, §5, §6, §7, §8

Assay [4] concerns BEL-7402 liver cancer cell. In words: MTT anti-proliferative assay, BEL-7402. The settings on record: for IC50: MTT, 48 h. The method, then:
as §1, §2, §3, §4, §5, §6, §7, §8

In assay [5] the test system is MCF-10A normal breast cell. In words: MTT assay, MCF-10A normal cells. Particulars: 48 h. The method, then:
as §1, §2, §3, §4, §5, §6, §7, §8

Assay [6] deals with HCT116 colectal cancer cell. The experiment in a line: MTT anti-proliferative assay, HCT116. Particulars: for IC50: MTT, 48 h, read-out: IC50 HCT-116. As to the method: as §1, §2, §3, §4, §5, §6, §7, §8
Assay [7] has as its system HepG2 hepatoma cell. The experiment in a line: MTT anti-proliferative assay, HepG2. Particulars: for IC50: MTT, 48 h, read-out: IC50 HepG-2. As to the method: as §1, §2, §3, §4, §5, §6, §7, §8
The test system of assay [8] is A549 lung cancer cell. The experiment in a line: MTT anti-proliferative assay, A549. Particulars: for IC50: MTT, 48 h. As to the method:
as §1, §2, §3, §4, §5, §6, §7, §8

Assay [9] relates to AGS gastric cancer cell. The experiment in a line: MTT anti-proliferative assay, AGS. The settings on record: for IC50: MTT, 48 h. The method, then: as §1, §2, §3, §4, §5, §6, §7, §8
Assay [10] relates to MGC-803 late stage differentiation gastric cancer cell. In words: MTT anti-proliferative assay, MGC-803. The settings on record: for IC50: MTT, 48 h. As to the method: as §1, §2, §3, §4, §5, §6, §7, §8
Assay [11] concerns MCF-7 breast cancer cell. The experiment in a line: MTT anti-proliferative assay, MCF-7. Particulars: MTT, 48 h. As to the method: as §1, §2, §3, §4, §5, §6, §7, §8
The subject of assay [12] is L-02 normal liver cell. In words: MTT assay, L-02 normal cells. The settings on record: 48 h. As to the method: as §1, §2, §3, §4, §5, §6, §7, §8
For assay [13], the system named is SGC-7901 early differentiation gastric cancer cell. The experiment in a line: MTT anti-proliferative assay, SGC-7901. The settings on record: for IC50: MTT, 48 h. As to the method: as §1, §2, §3, §4, §5, §6, §7, §8

`Cc1cc(C)c(/C=C(\C#N)c2ccc(OC(F)(F)F)cc2)c(C)c1` [Compound 1a2r]: the IC50 in assay [1], in assay [2], in assay [3], in [4], in assay [5] and in assay [6] was above 100 µM each time. Further, the concentration for half-maximal inhibition (IC50) in assay [7], in assay [8], in [9], in assay [10], in assay [11] and in assay [12] was above 100 µM in each case. Also, the IC50 in [13] was above 100 µM.
`N#C/C(=C\c1ccc(N2CCOCC2)cc1)c1ccc(OC(F)(F)F)cc1` [Compound 1a2s]: the 50% inhibitory concentration (IC50) in assay [1], in [2], in [3], in [4], in assay [5] and in assay [6] was above 100 µM throughout. For the same compound, the IC50 in [7], in assay [8], in [9], in assay [10], in assay [11] and in [12] was above 100 µM each time. The compound also returned a half-inhibitory concentration (IC50) in [13] above 100 µM.
Take `N#C/C(=C\c1ccc(N2CCCC2)cc1)c1ccc(OC(F)(F)F)cc1` [Compound 1a2t]: the IC50 was above 100 µM in assay [1]; above 100 µM in assay [2]; above 100 µM in assay [3]; above 100 µM in assay [4]; above 100 µM in assay [5]; 30.8 ± 2.9 µM in [6]. The IC50 in assay [7] was above 100 µM; in assay [8], above 100 µM; in assay [9], 89.8 ± 1 µM; in [10], 41.5 ± 2.1 µM; in assay [11] it was above 100 µM; in assay [12], above 100 µM. The compound further registered a half-maximal inhibitory concentration (IC50) in [13] of 57.2 ± 14.3 µM. Further, the “SI (selectivity index), IC50 (L-02)/IC50 (HCT-116)” value (from here on “SI (selectivity index) … (HCT-116)”) in assay [6] is above 3.2. Further, the “SI (selectivity index), IC50 (L-02)/IC50 (AGS)” value (shortened to “SI (selectivity index) … (AGS)”) in assay [9] is recorded as above 1.1. In [10], the “SI (selectivity index), IC50 (L-02)/IC50 (MGC-803)” value (“SI (selectivity index) … (MGC-803)” below) is above 2.4. Moreover, the “SI (selectivity index), IC50 (L-02)/IC50 (SGC-7901)” value (from here on “SI (selectivity index) … (SGC-7901)”) in [13] is above 1.7.
Regarding `N#C/C(=C\c1ccc(N2CCCCC2)cc1)c1ccc(OC(F)(F)F)cc1` [Compound 1a2u], the IC50 in assay [1], in [2], in [3], in [4], in assay [5] and in assay [6] was above 100 µM each time. The IC50 in [7], in [8], in [9], in assay [10], in assay [11] and in assay [12] was above 100 µM throughout. Besides, the IC50 in assay [13] is above 100 µM.
Turning to `N#C/C(=C\c1ccco1)c1ccc(OC(F)(F)F)cc1` [Compound 1a3a], the half-maximal inhibitory concentration (IC50) in [1], in [2], in assay [3], in [4], in [5] and in [6] was above 100 µM throughout. Further, the IC50 in assay [7], in assay [8], in assay [9], in [10], in [11] and in assay [12] was above 100 µM each time. In [13], this compound displayed an IC50 above 100 µM.
`N#C/C(=C\c1cccs1)c1ccc(OC(F)(F)F)cc1` [Compound 1a3b]: the 50% inhibitory concentration (IC50) in [1] was above 100 µM; in assay [2] it was above 100 µM; in [3], above 100 µM; in assay [4], above 100 µM; in assay [5] it was above 100 µM; in assay [6], 30.8 ± 2.9 µM. Besides, the IC50 in assay [7] was above 100 µM; in [8] it was above 100 µM; in assay [9], 89.8 ± 1 µM; in [10], 41.5 ± 2.1 µM; in assay [11], above 100 µM; in assay [12] it was above 100 µM. Also, the IC50 in assay [13] was 57.2 ± 14.3 µM. The “SI (selectivity index) … (HCT-116)” value in assay [6] is reported as above 1.8. The “SI (selectivity index), IC50 (L-02)/IC50 (HepG-2)” value in assay [7] is on record as above 1.6. Further, in assay [8], the “SI (selectivity index), IC50 (L-02)/IC50 (A549)” value is above 1.1. Moreover, the “SI (selectivity index) … (AGS)” value in assay [9] is on record as above 2.3. Besides, the “SI (selectivity index) … (MGC-803)” value in assay [10] was above 1.7. For the same compound, in assay [13], the “SI (selectivity index) … (SGC-7901)” value is given as above 1.7.
For `N#C/C(=C\c1cccc2ccccc12)c1ccc(OC(F)(F)F)cc1` [Compound 1a3c], the half-inhibitory concentration (IC50) in [1], in [2], in assay [3], in assay [4], in assay [5] and in assay [6] was above 100 µM in each case. Moreover, the IC50 in assay [7], in assay [8], in [9], in assay [10], in [11] and in assay [12] was above 100 µM throughout. The same compound gave a 50% inhibitory concentration (IC50) in assay [13] above 100 µM.
As for `N#C/C(=C\c1ccccc1)c1cccc(OC(F)(F)F)c1` [Compound 1b2a], the IC50 in [1], in [2], in assay [3], in [4], in [5] and in assay [6] was above 100 µM throughout. The 50% inhibitory concentration (IC50) in assay [7], in assay [8], in assay [9], in assay [10], in assay [11] and in assay [12] was above 100 µM in each case. In [13], the half-maximal inhibitory concentration (IC50) is above 100 µM.
For the compound `N#C/C(=C\c1ccc(F)cc1)c1cccc(OC(F)(F)F)c1` [Compound 1b2b], the 50% inhibitory concentration (IC50) is 60.4 ± 0.7 µM in assay [1]; above 100 µM in assay [2]; 17 ± 4.3 µM in [3]; 3 ± 1 µM in assay [4]; 11.3 ± 2.3 µM in [5]; 1.1 ± 0.3 µM in [6]. Further, the IC50 in [7] is 15.9 ± 5.2 µM; in assay [8], above 100 µM; in [9] it was 8.2 ± 2.6 µM; in [10], 1.2 ± 0.6 µM; in assay [11] it was above 100 µM; in assay [12], 16.1 ± 1 µM. In addition, inhibition in assay [13] was half-maximal at 5.4 ± 0.2 µM (IC50). For the same compound, the “SI (selectivity index), IC50 (L-02)/IC50 (BEL-7402)” value in assay [4] is above 5.2. Moreover, the “SI (selectivity index) … (HCT-116)” value in assay [6] was above 14.5. For the same compound, the “SI (selectivity index), IC50 (L-02)/IC50 (HepG-2)” value in [7] is on record as above 1.0. Further, the “SI (selectivity index) … (AGS)” value in [9] is above 1.9. For the same compound, the “SI (selectivity index) … (MGC-803)” value in [10] was above 13.1. For the same compound, the “SI (selectivity index) … (SGC-7901)” value in assay [13] was above 2.9.
As for `N#C/C(=C\c1ccc(Cl)cc1)c1cccc(OC(F)(F)F)c1` [Compound 1b2c], the IC50 in assay [1], in [2], in [3], in assay [4], in assay [5] and in [6] was above 100 µM each time. In addition, the IC50 in [7], in [8], in assay [9], in assay [10], in assay [11] and in assay [12] was above 100 µM throughout. Besides, in [13], the IC50 is above 100 µM.

(Values after PMC11071649, “Synthesis and Selective Anticancer Activity Evaluation of 2-phenylacrylonitrile Derivatives as Tubulin Inhibitors” (Current Medicinal Chemistry, 2024).)
